From patent US20260062443A1 (ALEXION PHARMACEUTICALS, INC., priority 2022, published 2026)

Each compound was assayed against T1, Human complement C1s enzyme (Homo sapiens, UniProt P09871) (assay: Human C1s enzyme assay). Settings: human complement C1s enzyme 1.16 nM, substrate Z-L-Lys-SBzl 100 μM, 5 min preincubation; read-out: IC50 (Stars), C1s Inhibiting Activity.
T1 sequence (P09871 438-688 limits assumed): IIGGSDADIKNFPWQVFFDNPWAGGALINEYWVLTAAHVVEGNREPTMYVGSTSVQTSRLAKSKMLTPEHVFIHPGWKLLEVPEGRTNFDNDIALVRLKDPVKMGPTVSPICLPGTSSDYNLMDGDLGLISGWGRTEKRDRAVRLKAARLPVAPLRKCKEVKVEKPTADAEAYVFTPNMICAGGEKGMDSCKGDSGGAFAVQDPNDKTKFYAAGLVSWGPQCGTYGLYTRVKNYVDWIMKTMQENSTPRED
T1 sequence (P09871 16-437 partner limits assumed): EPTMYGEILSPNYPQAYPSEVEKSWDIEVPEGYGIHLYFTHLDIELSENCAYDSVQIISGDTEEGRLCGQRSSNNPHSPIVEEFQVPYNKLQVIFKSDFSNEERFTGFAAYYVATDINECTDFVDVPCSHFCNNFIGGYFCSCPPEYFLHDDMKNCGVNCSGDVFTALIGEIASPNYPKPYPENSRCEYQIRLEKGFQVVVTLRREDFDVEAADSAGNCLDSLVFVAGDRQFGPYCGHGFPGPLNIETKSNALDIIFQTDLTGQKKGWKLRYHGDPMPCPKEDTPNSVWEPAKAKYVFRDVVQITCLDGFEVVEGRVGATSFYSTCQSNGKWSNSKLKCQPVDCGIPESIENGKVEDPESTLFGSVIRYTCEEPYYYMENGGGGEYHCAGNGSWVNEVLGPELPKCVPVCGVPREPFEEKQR
Format: biochemical
In short: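 IC50 from nonlinear regression of reaction rates versus compound concentration, with rates taken from A405 recorded at 30 s intervals over 30 min after adding 100 μM Z-L-Lys-SBzl plus 100 μM DTNB. Enzyme was human C1s purified from serum, 1.16 nM, given 5 min compound preincubation at room temperature, pH 7.5 Tris/1 M NaCl.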

SMILES	IC50
O=C(NCC(=O)N1C[C@H](OC(F)F)C[C@H]1C(=O)NCc1cnc2c(c1)NCC2)c1ccc2c(c1)Oc1ccccc1S2 [Compound 257, (2S,4R)-4-(difluoromethoxy)-N-((2,3-dihydro-1H-pyrrolo[3,2-b]pyridin-6-yl)methyl)-1-((phenoxathiine-3-carbonyl)glycyl)pyrrolidine-2-carboxamide]	> 1000 nM
O=C(NCC(=O)N1C[C@H](OC(F)F)C[C@H]1C(=O)NCc1ccc2[nH]cnc2n1)c1ccc2c(c1)Oc1ccccc1S2 [Compound 258, (2S,4R)-N-((1H-imidazo[4,5-b]pyridin-5-yl)methyl)-4-(difluoromethoxy)-1-((phenoxathiine-3-carbonyl)glycyl)pyrrolidine-2-carboxamide]	> 1000 nM
O=C(NCC(=O)N1C[C@H](OC(F)F)C[C@H]1C(=O)NCc1cnc2cn[nH]c2c1)c1ccc2c(c1)Oc1ccccc1S2 [Compound 262, (2S,4R)-N-((1H-pyrazolo[4,3-b]pyridin-6-yl)methyl)-4-(difluoromethoxy)-1-((phenoxathiine-3-carbonyl)glycyl)pyrrolidine-2-carboxamide]	> 1000 nM
C[C@@]12C[C@@H]1N(C(=O)CNC(=O)c1ccc3c(c1)Oc1ccccc1S3)[C@H](C(=O)NCc1ccc(B(O)O)cc1)C2 [Compound 263, (4-(((1S,3S,5S)-5-methyl-2-((phenoxathiine-3-carbonyl)glycyl)-2-azabicyclo[3.1.0]hexane-3-carboxamido)methyl)phenyl) boronic acid]	> 1000 nM
O=C(NCC(=O)N1C[C@H](OC(F)F)C[C@H]1C(=O)NCc1ccc2c(n1)CCN2)c1ccc2c(c1)Oc1ccccc1S2 [Compound 264, (2S,4R)-4-(difluoromethoxy)-N-((2,3-dihydro-1H-pyrrolo[3,2-b]pyridin-5-yl)methyl)-1-((phenoxathiine-3-carbonyl)glycyl)pyrrolidine-2-carboxamide]	> 1000 nM
O=C(NCC(=O)N1C[C@H](OC(F)F)C[C@H]1C(=O)NCc1ccc2c(n1)NCC2)c1ccc2c(c1)Oc1ccccc1S2 [Compound 265, (2S,4R)-4-(difluoromethoxy)-N-((2,3-dihydro-1H-pyrrolo[2,3-b]pyridin-6-yl)methyl)-1-((phenoxathiine-3-carbonyl)glycyl)pyrrolidine-2-carboxamide]	> 1000 nM
Cc1nccc2[nH]c(CNC(=O)[C@@H]3C[C@]4(C)C[C@@H]4N3C(=O)CNC(=O)c3ccc4c(c3)Oc3ccccc3S4)cc12 [Compound 267, (1S,3S,5S)-5-methyl-N-((4-methyl-1H-pyrrolo[3,2-c]pyridin-2-yl)methyl)-2-((phenoxathiine-3-carbonyl)glycyl)-2-azabicyclo[3.1.0]hexane-3-carboxamide]	> 1000 nM
Cc1cc2[nH]c(CNC(=O)[C@@H]3C[C@]4(C)C[C@@H]4N3C(=O)CNC(=O)c3ccc4c(c3)Oc3ccccc3S4)cc2cn1 [Compound 268, (1S,3S,5S)-5-methyl-N-((6-methyl-1H-pyrrolo[3,2-c]pyridin-2-yl)methyl)-2-((phenoxathiine-3-carbonyl)glycyl)-2-azabicyclo[3.1.0]hexane-3-carboxamide]	> 1000 nM
O=C(NCC(=O)N1C[C@H](OC(F)F)C[C@H]1C(=O)NCc1cc2cnccc2[nH]1)c1cccc(Oc2cccs2)c1 [Compound 275, (2S,4R)-N-((1II-pyrrolo[3,2-c]pyridin-2-yl)methyl)-4-(difluoromethoxy)-1-((3-(thiophen-2-yloxy)benzoyl)glycyl)pyrrolidine-2-carboxamide]	< 100 nM
O=C(NCC(=O)N1CC2(C[C@H]1C(=O)NCc1cc3ccncn3c1)OCCO2)c1ccc2c(c1)Oc1ccccc1S2 [Compound 276, (S)-7-((phenoxathiine-3-carbonyl)glycyl)-N-(pyrrolo[1,2-c]pyrimidin-6-ylmethyl)-1,4-dioxa-7-azaspiro[4.4]nonane-8-carboxamide]	> 1000 nM
C[C@@]12C[C@@H]1N(C(=O)CNC(=O)c1cccc(Oc3ccccc3)c1)[C@H](C(=O)NCc1cc3cnccn3c1)C2 [Compound 277, (1S,3S,5S)-5-methyl-2-((3-phenoxybenzoyl)glycyl)-N-(pyrrolo[1,2-a]pyrazin-7-ylmethyl)-2-azabicyclo[3.1.0]hexane-3-carboxamide]	< 100 nM
O=C(NCC(=O)N1C[C@H](OC(F)F)C[C@H]1C(=O)NCc1cc2cnccn2c1)c1cccc(Oc2ccc(F)cc2)c1 [Compound 278, (2S,4R)-4-(difluoromethoxy)-1-((3-(4-fluorophenoxy)benzoyl)glycyl)-N-(pyrrolo[1,2-a]pyrazin-7-ylmethyl)pyrrolidine-2-carboxamide]	< 100 nM
C[C@@]12C[C@@H]1N(C(=O)CNC(=O)c1ccc3c(c1)Oc1ccccc1S3)[C@H](C(=O)NCc1ccc3c(c1)COB3O)C2 [Compound 279, (1S,3S,5S)-N-((1-hydroxy-1,3-dihydrobenzo[c][1,2]oxaborol-5-yl)methyl)-5-methyl-2-((phenoxathiine-3-carbonyl)glycyl)-2-azabicyclo[3.1.0]hexane-3-carboxamide]	> 1000 nM
O=C(Cc1ccc(Cl)c(Cl)c1)NCC(=O)N1CC2(C[C@H]1C(=O)NCc1cc3cnccc3[nH]1)OCCO2 [Compound 280, (S)-N-((1H-pyrrolo[3,2-c]pyridin-2-yl)methyl)-7-((2-(3,4-dichlorophenyl)acetyl)glycyl)-1,4-dioxa-7-azaspiro[4.4]nonane-8-carboxamide]	100 to 1000 nM

The next lines start with the values.

IC50	SMILES
< 100 nM	O=C(NCC(=O)N1C[C@H](OC(F)F)C[C@H]1C(=O)NCc1cc2cnccc2[nH]1)c1cccc(Oc2ccc(F)cc2F)c1 [Compound 259, (2S,4R)-N-((1H-pyrrolo[3,2-c]pyridin-2-yl)methyl)-4-(difluoromethoxy)-1-((3-(2,4-difluorophenoxy)benzoyl)glycyl)pyrrolidine-2-carboxamide]
< 100 nM	Cc1ccc(Oc2cccc(C(=O)NCC(=O)N3C[C@H](OC(F)F)C[C@H]3C(=O)NCc3cc4cnccc4[nH]3)c2)c(F)c1 [Compound 260, (2S,4R)-N-((1H-pyrrolo[3,2-c]pyridin-2-yl)methyl)-4-(difluoromethoxy)-1-((3-(2-fluoro-4-methylphenoxy)benzoyl)glycyl) pyrrolidine-2-carboxamide]
< 100 nM	O=C(NCC(=O)N1CC=C[C@H]1C(=O)NCc1cc2cnccc2[nH]1)c1ccc2c(c1)Oc1ccccc1S2 [Compound 261, (S)-N-((1H-pyrrolo[3,2-c]pyridin-2-yl)methyl)-1-((phenoxathiine-3-carbonyl)glycyl)-2,5-dihydro-1H-pyrrole-2-carboxamide]
< 100 nM	O=C(NCC(=O)N1C[C@H](OC(F)F)C[C@H]1C(=O)NCc1cc2cnccn2c1)c1ccc2c(c1)Oc1ccccc1S2 [Compound 266, (2S,4R)-4-(difluoromethoxy)-1-((phenoxathiine-3-carbonyl)glycyl)-N-(pyrrolo[1,2-a]pyrazin-7-ylmethyl)pyrrolidine-2-carboxamide]
< 100 nM	C[C@@]12C[C@@H]1N(C(=O)CNC(=O)c1cccc(Oc3ccc(F)cc3)c1)[C@H](C(=O)NCc1cc3cnccn3c1)C2 [Compound 269, (1S,3S,5S)-2-((3-(4-fluorophenoxy)benzoyl)glycyl)-5-methyl-N-(pyrrolo[1,2-a]pyrazin-7-ylmethyl)-2-azabicyclo[3.1.0]hexane-3-carboxamide]
< 100 nM	O=C(NCC(=O)N1C[C@H](OC(F)F)C[C@H]1C(=O)NCc1cc2cnccn2c1)c1cccc(Oc2ccccc2)c1 [Compound 270, (2S,4R)-4-(difluoromethoxy)-1-((3-phenoxybenzoyl)glycyl)-N-(pyrrolo[1,2-a]pyrazin-7-ylmethyl)pyrrolidine-2-carboxamide]
< 100 nM	C[C@@]12C[C@@H]1N(C(=O)CNC(=O)c1ccc3c(c1)Oc1ccccc1S3)[C@H](C(=O)NCc1cc3cnccn3c1)C2 [Compound 271, (1S,3S,5S)-5-methyl-2-((phenoxathiine-3-carbonyl)glycyl)-N-(pyrrolo[1,2-a]pyrazin-7-ylmethyl)-2-azabicyclo[3.1.0]hexane-3-carboxamide]
< 100 nM	Cc1ccc(Oc2cccc(C(=O)NCC(=O)N3C[C@H](OC(F)F)C[C@H]3C(=O)NCc3cc4cnccc4[nH]3)c2)cc1 [Compound 272]
< 100 nM	CC(C)(C)c1ccc(Oc2cccc(C(=O)NCC(=O)N3C[C@H](OC(F)F)C[C@H]3C(=O)NCc3cc4cnccc4[nH]3)c2)cc1 [Compound 273, (2S,4R)-N-((1H-pyrrolo[3,2-c]pyridin-2-yl)methyl)-1-((3-(4-(tert-butyl)phenoxy)benzoyl)glycyl)-4-(difluoromethoxy)pyrrolidine-4-carboxamide]
< 100 nM	Cc1cc(F)ccc1Oc1cccc(C(=O)NCC(=O)N2C[C@H](OC(F)F)C[C@H]2C(=O)NCc2cc3cnccc3[nH]2)c1 [Compound 274, (2S,4R)-N-((1H-pyrrolo[3,2-c]pyridin-2-yl)methyl)-4-(difluoromethoxy)-1-((3-(4-fluoro-2-methylphenoxy)benzoyl)glycyl) pyrrolidine-2-carboxamide]
